Values of other authors, collected in patent publication US7771760B2, “Oils of capsaicinoids and methods of making and using the same” (NeurogesX, Inc., priority 2005, dated 2010).

Question: For `COc1cc(CNC(=O)CCCC/C=C/C(C)C)ccc1O` [capsaicin], which “solubility in organic solvents” value (benzene, alcohol, ketone, ether and paraffin oils) is on record?
Answer: soluble

Question: What about the “solubility in cold water” value (cold water) of the same compound?
Answer: sparingly soluble
